Data: patent US20260166122A1, “USE OF MICROPEPTIDE MIAC” (NANJING ANJI BIOTECHNOLOGY CO., LTD, priority 2023, published 2026)
Read-outs that look alike come from different tables or passages of the source. Ends that are not written are not given here.

Legend:
Type in all cases: cell-based
Details in all cases: 72 h
[1] = tested on: human esophageal carcinoma cells CaES-17
[2] = tested on: human breast cancer cells MX-1
[3] = tested on: human lung giant cell carcinoma cells 95-D
[4] = tested on: human breast cancer cells MDA-MB-231

“MERAGVPGFSPRRSSVEAKMQSTSCSVRKSSTVTAWPAVVLLLSWGQRRGG [MIAC, micropeptide inhibiting actin cytoskeleton]” was tested, and the OD ([1]; CaES-17, 50 μM) was 1.168 ± 0.044, the OD ([1]; CaES-17, 100 μM) was 0.672 ± 0.051 and the OD ([1]; CaES-17, 200 μM) was 0.466 ± 0.022. For the same sequence, the OD ([2]; MX-1, 50 μM) was 1.020 ± 0.028, the OD ([2]; MX-1, 100 μM) was 0.808 ± 0.102 and the OD ([2]; MX-1, 200 μM) was 0.630 ± 0.051. The OD ([3]; 50 μM) was 1.188 ± 0.022, the OD ([3]; 100 μM) was 0.863 ± 0.054 and the OD ([3]; 200 μM) was 0.341 ± 0.010. The OD ([4]; MDA-MB-231, 50 μM) was 0.777 ± 0.050, the OD ([4]; MDA-MB-231, 100 μM) was 0.378 ± 0.058 and the OD ([4]; MDA-MB-231, 200 μM) was 0.206 ± 0.016.
